Test results from patent publication US20210315991A1, “COMBINATION INCLUDING A CPG-C TYPE OLIGONUCLEOTIDE AND A PD-1 ANTAGONIST FOR TREATING BREAST CANCER” (Surefire Medical, Inc. d/b/a TriSalus Life Sciences, priority 2018, published 2021).

System: human peripheral blood mononuclear cells (PBMCs)
Assay: IFN-α secretion by human PBMC (ELISA)
Type: cell-based
Settings: for EC50: human PBMCs from healthy donors, IFN-α in supernatant by ELISA; for EC50 / IFN-α Max: 24 hours incubation; for IFN-α Max / maximum IFN-α levels induced, as compared to C69-10 and C69-11: human PBMCs; for IFN-α Max: ELISA, limit of maximal/minimal detection 13160/102 pg/ml; for maximum IFN-α levels induced, as compared to C69-10 and C69-11: 24 hours, result in words
Method: The activity of a candidate TLR9 agonist may be assessed in vitro by measuring interferon-alpha secretion by human peripheral blood mononuclear cells (PBMC) with an enzyme linked immunosorbent assay (ELISA). In particular, human PBMC are contacted with a series of graded doses of the candidate TLR9 agonist (and controls) for a period of about 24 hours. The EC50 value (in nM) and a max production level (in pg/mL) are then determined from a dose-response curve.
Activity of oligonucleotides (PN) was assessed in vitro by measurement of cytokine secretion by human peripheral blood mononuclear cells (PBMCs).
PBMCs were isolated from blood of healthy human donors using Ficoll-Paque. For IFN-α induction, duplicate cultures of PBMCs were incubated for 24 hours with increasing concentrations of oligonucleotides. IFN-α levels in cell culture supernatants were measured by ELISA (PBL Biomedical Laboratories, Piscataway, N.J.). The limit of maximal/minimal detection was 13160/102 pg/ml.

| Substance | EC50 [nM] | IFN-α Max [pg/mL] | maximum IFN-α levels induced, as compared to C69-10 and C69-11 |
| --- | --- | --- | --- |
| C69-01: 5′-TCG AACGTTCGAACGTTCGAA CGTTCGAAT-3′ (SEQ ID NO: 4), CpG-C 2′-deoxyribopolynucleotide, phosphorothioate backbone (DNA TCGAACGTTCGAACGTTCGAACGTTCGAAT; DNA, all phosphorothioate, methylation of C not given here) | 61 | 6030 | Higher maximum IFN-α levels |
| C69-02: 5′-TCG AACGTTCGAACGTTCGAA CGTT-3′ (SEQ ID NO: 5), phosphorothioate backbone (DNA TCGAACGTTCGAACGTTCGAACGTT; DNA, all phosphorothioate, methylation of C not given here) | 49 | 6008 | Higher maximum IFN-α levels |
| C69-10: 5′-TTCG AACGTTCGAACGTTCGAAT-3′ (SEQ ID NO: 23), phosphorothioate backbone (DNA TTCGAACGTTCGAACGTTCGAAT; DNA, all phosphorothioate, methylation of C not given here) | 58 | 3820 | – |
| C69-11: 5′-TTTTCG AACGTTCGAACGTTCGAAATT-3′ (SEQ ID NO: 24), phosphorothioate backbone (DNA TTTTCGAACGTTCGAACGTTCGAAATT; DNA, all phosphorothioate, methylation of C not given here) | 65 | 1239 | – |
